Test systems include NCI-H23; RPMI-8226; K562; SN12C; UO-31; MOLT-4; OVCAR-8; 786-0; COLO 205; M14; EKVX; SF-295; HT-29; MDA-MB-231; SW-620; SK-MEL-28; HOP-62; CCRF-CEM; RXF 393; NCI-H522.
What all share (assay): inhibition of tumour cell growth, NCI panel, 48 h

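Following 48 hours of exposure in 96-well plates, responses at five concentrations were used to interpolate endpoints linearly. The concentration for 50% growth inhibition is given as GI50.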 Calls of active or inactive are those of the source. Cut-off read from the data, not from the text of the source: active = GI50 up to about 1.1 µM and inactive = higher.

Consider `COC(=O)/C=C\C(C#N)(C#N)/N=C/c1ccccc1`, for which the GI50 in the assay on NCI-H23 is 7.35 µM (inactive); in the assay with RPMI-8226, 0.573 µM (active); with K562, 3.37 µM (inactive); in the assay with SN12C, 11.1 µM (inactive); in the assay with UO-31 it was 2.42 µM (inactive); in the assay on MOLT-4, 0.953 µM (active). Also, the GI50 in the assay with OVCAR-8 was 1.91 µM (inactive); in the assay with 786-0, 1.63 µM (inactive); with COLO 205, 1.62 µM (inactive); with M14, 2.25 µM (inactive); in the assay on EKVX it was 12.8 µM (inactive); with SF-295, 18.7 µM (inactive). In addition, the GI50 in the assay with HT-29 is 4.49 µM (inactive); with MDA-MB-231, 15.6 µM (inactive); in the assay with SW-620, 1.46 µM (inactive); with SK-MEL-28 it was 6 µM (inactive); in the assay on HOP-62, 18.5 µM (inactive); in the assay on CCRF-CEM, 0.337 µM (active). Also, the figures for the GI50 in the assay with RXF 393 and with NCI-H522 were 1.94 µM (inactive) and 0.471 µM (active), respectively.
Take `CCN1/C(=C/c2ccc3ccccc3[n+]2CC)C=Cc2ccccc21`: the GI50 is 0.551 µM (active) with NCI-H23; 0.19 µM (active) in the assay on RPMI-8226; 0.262 µM (active) in the assay on K562; 0.649 µM (active) in the assay with SN12C; 3.09 µM (inactive) in the assay on UO-31; 0.641 µM (active) in the assay on MOLT-4. In addition, the GI50 in the assay with OVCAR-8 was 0.555 µM (active); in the assay with 786-0 it was 2.32 µM (inactive); in the assay on COLO 205, 0.19 µM (active); in the assay with M14, 0.851 µM (active); with EKVX it was 1.72 µM (inactive); with SF-295, 0.479 µM (active). In addition, the GI50 in the assay with HT-29 was 1.14 µM (inactive); in the assay with MDA-MB-231, 1.77 µM (inactive); in the assay with SW-620, 0.762 µM (active); with SK-MEL-28, 1.15 µM (inactive); in the assay on HOP-62, 0.805 µM (active); in the assay with CCRF-CEM, 0.26 µM (active). In addition, the GI50 in the assay on RXF 393 is 2.12 µM (inactive); in the assay with NCI-H522, 0.266 µM (active).
For the compound `CN(C)c1ccc(/C=c2/c3ccccc3n3nc4ccccc4c23)cc1`, the GI50 in the assay on NCI-H23 was 95.7 µM (inactive); in the assay on RPMI-8226 it was 10.7 µM (inactive); with K562, 9.53 µM (inactive); in the assay on SN12C, 73.6 µM (inactive); in the assay on UO-31 it was 39.6 µM (inactive); with MOLT-4, 17 µM (inactive). Besides, the GI50 with OVCAR-8 is 39.8 µM (inactive); in the assay with 786-0 it was 27 µM (inactive); in the assay on COLO 205 it was 9.64 µM (inactive); in the assay on M14, 21.7 µM (inactive); in the assay on EKVX it was 44.3 µM (inactive); in the assay on SF-295, 13.2 µM (inactive). Besides, the GI50 with HT-29 is 13.7 µM (inactive); with MDA-MB-231 it was 47 µM (inactive); with SW-620, 12.8 µM (inactive); in the assay on SK-MEL-28 it was 34.9 µM (inactive); in the assay with HOP-62, 49.4 µM (inactive); with CCRF-CEM it was 7.98 µM (inactive). Further, the GI50 with RXF 393 is 11.9 µM (inactive); in the assay with NCI-H522, 5.71 µM (inactive).
`COc1ccc(C(OCC2OC(n3ccc(NC(=O)c4ccccc4)nc3=O)C(O)C2O)(c2ccccc2)c2ccccc2)cc1` (stereo not given): the GI50 is 1.32 µM (inactive) in the assay with NCI-H23; 2.42 µM (inactive) with RPMI-8226; 2.38 µM (inactive) with K562; 1.82 µM (inactive) with SN12C; 3.42 µM (inactive) in the assay on UO-31; 2.1 µM (inactive) in the assay on MOLT-4. Further, the GI50 with OVCAR-8 was 1.78 µM (inactive); in the assay with 786-0 it was 2.12 µM (inactive); in the assay with COLO 205 it was 2 µM (inactive); in the assay with M14, 2.03 µM (inactive); with EKVX, 2.72 µM (inactive); in the assay with SF-295, 1.95 µM (inactive). Besides, the GI50 is 1.53 µM (inactive) in the assay on HT-29; 2.13 µM (inactive) in the assay on MDA-MB-231; 3.13 µM (inactive) with SW-620; 2.72 µM (inactive) with SK-MEL-28; 2.34 µM (inactive) in the assay with HOP-62; 2.26 µM (inactive) in the assay on CCRF-CEM. The values for the GI50 in the assay with RXF 393 and with NCI-H522 were 2.97 µM (inactive) and 2.48 µM (inactive), respectively.
`Cc1cc(O)nc2cc3oc4ccccc4c3cc12`: the GI50 in the assay with NCI-H23 is > 68.5 µM (inactive); with RPMI-8226, 37.9 µM (inactive); with K562, 30.9 µM (inactive); in the assay with SN12C it was > 100 µM (inactive); in the assay on UO-31 it was > 27.5 µM (inactive); in the assay on MOLT-4, 3.71 µM (inactive). In addition, the GI50 is > 100 µM (inactive) with OVCAR-8; 25.2 µM (inactive) with 786-0; 16.7 µM (inactive) in the assay on COLO 205; > 100 µM (inactive) in the assay on M14; 0.0448 µM (active) in the assay with EKVX; > 100 µM (inactive) with SF-295. Moreover, the GI50 with HT-29 is 44.8 µM (inactive); with MDA-MB-231 it was 52 µM (inactive); in the assay with SW-620 it was 35.2 µM (inactive); in the assay with SK-MEL-28, > 100 µM (inactive); in the assay on HOP-62, > 100 µM (inactive); in the assay on CCRF-CEM, 11.5 µM (inactive). In addition, the GI50 in the assay on RXF 393 is > 100 µM (inactive); with NCI-H522, 34.1 µM (inactive).
With `Cc1ccc(C(=O)N/N=C(\N=N\c2cccc(Cl)c2)c2ccc(N(CCC#N)CCC#N)cc2C)cc1`, the GI50 is > 100 µM (inactive) in the assay with NCI-H23; 91.8 µM (inactive) with RPMI-8226; > 100 µM (inactive) in the assay with K562; > 100 µM (inactive) with SN12C; > 100 µM (inactive) in the assay with UO-31; 41.5 µM (inactive) in the assay on MOLT-4. For the same compound, the GI50 with OVCAR-8 was 79.4 µM (inactive); with 786-0, 82 µM (inactive); in the assay on COLO 205, > 100 µM (inactive); in the assay on M14, > 100 µM (inactive); with EKVX, > 100 µM (inactive); with SF-295, > 100 µM (inactive). The GI50 in the assay with HT-29 is 90.2 µM (inactive); in the assay on MDA-MB-231, > 100 µM (inactive); with SW-620 it was > 100 µM (inactive); in the assay with SK-MEL-28, > 100 µM (inactive); in the assay with HOP-62, > 100 µM (inactive); with CCRF-CEM, 97.1 µM (inactive). Also, the GI50 in the assay with RXF 393 is 29.4 µM (inactive); in the assay with NCI-H522 it was > 100 µM (inactive).
Consider `NC(Cc1ccccc1)(C(=O)O)C(=O)O`, for which the GI50 with NCI-H23, with RPMI-8226, with K562, with SN12C, in the assay on UO-31 and with MOLT-4 was > 100 µM (inactive) throughout. The GI50 with OVCAR-8, in the assay with 786-0, with COLO 205, in the assay with M14, in the assay on EKVX and with SF-295 was > 100 µM (inactive) each time. For the same compound, the GI50 with HT-29, in the assay with MDA-MB-231, with SW-620, in the assay with SK-MEL-28, in the assay on HOP-62 and in the assay on CCRF-CEM was > 100 µM (inactive) throughout. In addition, the GI50 in the assay with RXF 393 and in the assay on NCI-H522 was > 100 µM (inactive) each time.

The values are drawn from ChEMBL document CHEMBL1201862, “PubChem BioAssay data set” (2004).
